# Measured values as given in patent US10513499B2, “Inhibitors of alpha-amino-beta-carboxymuconic acid semialdehyde decarboxylase” (TES Pharma S.r.l., priority 2014, dated 2019).
# “Also recorded” adds a separate entry of the source.
# Experiments:
# [1] = test system: SOD2 activity in primary murine hepatocytes; assay: Modulation of SOD2 activity in murine primary hepatocytes; format: cell-based, mouse; details: for SOD2 activity: primary murine hepatocytes, 24 hours
# Protocol: (§1) Primary hepatocytes or AML-12 cells are lysed and total protein concentration is determined using the Bradford assay. SOD2 activity is determined at indicated times after treatment with a compound of Formula (I), Formula (Ia), Formula (Ib), Formula (II), or Formula (III), or a pharmaceutically acceptable salt thereof, using a SOD Assay Kit. Absorbance is determined and results are expressed in U/ml/mg of protein according to the standard curve and measured protein concentration.
# Primary hepatocytes were prepared from 8-12-week-old C57BL/6J mice by collagenase perfusion method. Mouse livers were perfused with Hank's balanced salt solution (HBSS, KCl, 5.4 mM; KH2PO4, 0.45 mM; NaCl, 138 mM; NaHCO3, 4.2 mM; Na2HPO4, 0.34 mM; glucose, 5.5 mM; […]; EGTA, 50 mM; CaCl2, 50 mM; pH 7.4). Livers were then washed at a rate of 5 ml/min through the portal vein. After washing, livers were perfused with collagenase (0.025%) solution. Cell viability was assessed by the trypan blue method. Isolated primary hepatocytes were plated with DMEM medium (Gibco) including 10% FCS, 10 units per ml penicillin and HEPES for buffering. The cells were maintained in culture at 37° C. in a humidified atmosphere of 5% CO2/95% air. After 6-8 hrs of attachment, this medium was replaced with media containing different concentrations of an ACMSD inhibitor (i.e., Compound 1 or Compound 17) or with the corresponding concentration of DMSO (as a control). […]
# (§2) Primary hepatocytes or AML-12 cells were then lysed in a 20 mM HEPES buffer (Gibco), pH 7.2, containing 1 mM EGTA (Sigma), 210 mM mannitol (Sigma), and 70 mM sucrose (AMRESCO). Total protein concentration was determined using the Bradford assay (BioRad). SOD-2 activity was determined at indicated times after ACMSD inhibitor treatment by the SOD Assay Kit (Cayman Chemical) according to the manufacturer's instructions. […] Absorbance was determined with a Victor X4 multi-label plate reader (Perkin-Elmer) at 450 nm. Results are expressed in U/ml/mg of protein according to the standard curve and measured protein concentration.
# HePG2 cells = assay: Cytotoxicity in HePG2 cells (LDH release, ATP level); format: cell-based; details: 10 nM to 300 μM, 4 hrs
# Protocol: (§3) HePG2 and AML-12 cells are seeded and a dose-response of the compound is performed at various concentrations. Cells are stimulated and the supernatant is used to perform LDH release as a measure of necrosis while the cells are lysed to detect ATP levels for determining cell viability.
# (§4) Cytotoxicity: 20000 HePG2 and AML-12 cells were seeded in 96 well plate (Viewplate PerkinElmer). Dose-response of the compound in Table 2 was performed using HP D300 digital dispenser, ranging from 10 nM to 300 μM with constant DMSO 1% in medium. Cells were stimulated for 4 hrs at 37° C.; the supernatant was used to perform LDH release (Cytotox-one, Promega) as a measure of necrosis while the cells were lysed to detect ATP level for determining cell viability (Celltiter-glo, Promega) according to manufacturer's instructions.
# [2] = test system: FoxO1 phosphorylation at Ser256; assay: FoxO1 phosphorylation levels in AML-12 cells (western blot); format: cell-based, mouse; details: 24 hours, increasing dose
# Protocol: AML-12 cells are treated with different concentrations of a compound of Formula (I), Formula (Ia), Formula (Ib), Formula (II), or Formula (III), or a pharmaceutically acceptable salt thereof. Cells are then lysed, and analyzed by SDS-PAGE/western blot. Blocking and antibody incubations are then done and each protein present is detected with its specific antibody.
# AML-12 cells were treated with different concentrations of Compound 1 or Compound 17 for 24 hours. Cells were then lysed in lysis buffer (50 mM Tris, 150 mM KCl, EDTA 1 mM, NP40 1%) containing protease and phosphatase inhibitors, and analyzed by SDS-PAGE/western blot. Blocking and antibody incubations were done in 5% milk. Each protein present was detected with its specific antibody. Tubulin antibody was obtained from Sigma Inc, FoxO1 and phopho-FoxO1 (Ser256) antibodies were obtained from Cell Signaling. Antibody detection reactions were developed by enhanced chemiluminescence (Advansta, Calif., USA) using x-ray films.
# [3] = test system: SOD2 activity in AML-12 cells; assay: Modulation of SOD2 activity in AML-12 cells; format: cell-based, mouse; details: 24 hours
# Protocol: as §1, with “concentration. […]” for “concentration.”
# as §2
# Hepa-1.6 cells = assay: RT-qPCR analysis of SIRT1-regulated genes in Hepa-1.6 cells; format: cell-based; details: 24 hrs
# Protocol: (§5) Cells (AML-12, Hepa-1.6, HEK-293, primary human and murine hepatocytes) are treated with different concentrations of a compound of Formula (I), Formula (Ia), Formula (Ib), Formula (II), or Formula (III), or a pharmaceutically acceptable salt thereof and the gene expression of ACMSD, Pgc1a, Sod1, and Sod2 (MnSOD) is determined using RT-qPCR. Total RNA is extracted from cells and the extracted RNA is treated with DNase and used for reverse transcription (RT).
# (§6) Gene expression of ACMSD and genes known to be regulated by SIRT1, (an enzyme that is strictly NAD^+ dependent) such as Pgc1a, Sod1, Sod2 (MnSOD), were analysed in AML-12 cells, Hepa-1.6 cells and primary murine hepatocytes treated with Compound 1 or 17.
# (§7) Cells (AML-12, Hepa-1.6, HEK-293, primary human and murine hepatocytes) were treated with different concentrations of Compound 1 or Compound 17. Total RNA was extracted from cells using TRIzol (Invitrogen) according to the manufacturer's instructions. The RNA was treated with DNase, and 2 μg of RNA was used for reverse transcription (RT). 50× diluted cDNA was used for RT-quantitative PCR (RT-qPCR) reactions. The RT-qPCR reactions were performed using the Light-Cycler system (Roche Applied Science) and a qPCR Supermix (QIAGEN) with the indicated primers. The average of at least three technical repeats was used for each biological data point.
# AML-12 cells [4] = assay: Cytotoxicity in AML-12 cells (LDH release, ATP level); format: cell-based, mouse; details: 10 nM to 300 μM, 4 hrs
# Protocol: as §3, §4
# ACMSD-1 = ACMSD-1 (Homo sapiens (Human), UniProt Q8TDX5); assay: ACMSD-1 modulation in HEK293T cells transiently expressing ACMSD; format: cell-based; details: about 50 nM to about 5 uM; stimulated 48 hrs to 72 hrs
# Chain of ACMSD-1 (Q8TDX5 whole entry): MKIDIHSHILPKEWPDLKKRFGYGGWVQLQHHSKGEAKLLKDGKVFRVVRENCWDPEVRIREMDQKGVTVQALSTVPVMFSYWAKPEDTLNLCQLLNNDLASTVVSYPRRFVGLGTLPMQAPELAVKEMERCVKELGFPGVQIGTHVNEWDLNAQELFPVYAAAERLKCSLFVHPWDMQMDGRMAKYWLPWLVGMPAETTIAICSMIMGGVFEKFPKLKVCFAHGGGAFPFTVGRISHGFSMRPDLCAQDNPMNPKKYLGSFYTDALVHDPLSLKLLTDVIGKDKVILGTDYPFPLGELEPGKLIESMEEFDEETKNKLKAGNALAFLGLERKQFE
# Protocol: HEK293T cells are seeded and transfected to transiently express ACMSD. The cells are then stimulated with different concentrations of Compound 1, and then lysed to measure the ACMSD activity in a spectrophotometrical in vitro assay. The amount of the whole protein content in cell lysates is detected by Bradford analysis and used to get the specificity activity of the enzyme normalized in all samples.
# HEK293T cells (ATCC) were seeded in six-well plates and transfected using Fugene HD to express transiently ACMSD. 24 hrs post transfection, the cells were stimulated for 48 hrs to 72 hrs with different concentrations of Compound 1 and then lysed to measure the ACMSD activity, by measuring the conversion of 30H-Anthranilic Acid into product (i.e. α-amino-beta-carboxymuconate-ε-semialdehyde, ACMS) in a spectrophotometrical in vitro assay. The amount of the whole protein content in cell lysates was detected by Bradford analysis. This value was used to get the specificity activity of the enzyme normalized in all samples (mU/ml or ΔE/Δt/mg of total protein).
# Having determined the optimum stimulation time and transfection protocol cells were stimulated with different concentrations of Compound 1 (about 50 nM to about 5 uM).
# AML-12 cells [5] = assay: RT-qPCR analysis of SIRT1-regulated genes in AML-12 cells; format: cell-based, mouse; details: 24 hrs
# Protocol: as §5, §6, §7
# [6] = test system: human primary hepatocytes; assay: NAD+ content in human primary hepatocytes by LCMS/MS; format: cell-based; details: tested at 0.5 μM and 5 μM; compound replaced every 24 hrs
# Protocol: Primary hepatocytes are treated with different concentrations of a compound of Formula (I), Formula (Ia), Formula (Ib), Formula (II), or Formula (III), or a pharmaceutically acceptable salt thereof, or MEHP (control) after seeding. The compound is replaced every 24 hours, and then cells are directly harvested and lysed to detect NAD^+ content through LC MS/MS (liquid chromatography mass spectrometry/mass spectroscopy).
# The NAD^+ concentration or content was determined in human primary hepatocytes treated with Compound 4. Vehicle (NT) was used as a control.
# At least three experiments were run treating primary hepatocytes with different concentrations of Compound 4 (0.5 μM and 5 μM) after 48 hrs from seeding. Compound 4 was replaced every 24 hrs, and then cells were directly harvested and lysed with ACN/H2O (ratio 5:1). LCMS/MS was used to detect and measure NAD^+ concentration/content. […] (FIG. 1)
# The NAD^+ concentration or content was determined in human primary hepatocytes treated with Compound 1 and MEHP, a known ACMSD inhibitor. MEHP was used as a control.
# At least three experiments were run treating primary hepatocytes with different concentrations of Compound 1 (0.5 μM, 5 μM, and 50 μM) after 48 hrs from seeding. Compound 1 was replaced every 24 hrs, and then cells were directly harvested and lysed with ACN/H2O (ratio 5:1). […]
# [7] = test system: murine primary hepatocytes; assay: NAD+ content in murine primary hepatocytes (HPLC, mass-spectrometry); format: cell-based, mouse; details: 5 nM, 10 nM and 50 nM for 24 hours
# [8] = test system: primary mouse hepatocytes; assay: RT-qPCR analysis of SIRT1-regulated genes in primary mouse hepatocytes; format: cell-based; details: 24 hrs, 5 nM-500 nM range
# Protocol: as §5, §6, §7
# MDCK cells = assay: Modulation of cisplatin-induced caspase 3/7 activity in MDCK cells; format: cell-based; details: for EC50: Canis lupus familiaris, MDCK
# Protocol: MDCK cells are cultured in base medium to a final concentration of 10%. Cells are plated into 96 wells and 24 hours after cell plating the medium is changed with fresh medium supplemented with 1% FBS. Cisplatin is then used to induce cell injury. Different concentrations of Formula (I), Formula (Ia), Formula (Ib), Formula (II), or Formula (III), or a pharmaceutically acceptable salt thereof (in DMSO) are added in combination with cisplatin or prior to adding cisplatin. Caspase 3/7 activity (Promega) is determined according to standard procedures using a luminescent signal readout on a plate reader. Each experiment/condition is performed in triplicate. Caspase activity is analyzed as percentage effect normalized to the cisplatin alone and vehicle treated cells.
# An in vitro study was performed to determine the effects of compounds of Formula (I), Formula (Ia), Formula (Ib), Formula (II), or Formula (III), or a pharmaceutically acceptable salt thereof, on Acute Kidney Injury in MDCK cells.
# MDCK cells (MDCK (NBL-2) ATCC® CCL-34™) were cultured in base medium ATCC-formulated Eagle's Minimum Essential Medium, Catalog No. 30-2003 with fetal bovine serum (FBS) to a final concentration of 10%. 10,000 cells were plated into 96 wells and 24 hours after cell plating the medium was changed with fresh medium supplemented with 1% FBS. Cisplatin (50 μM for 16 hrs) was then used to induce cell injury. Different concentrations of Compound 18 (in 1% DMSO) were added in combination with cisplatin (FIG. 1) or 1 hour prior adding cisplatin (FIG. 2).
# Caspase 3/7 activity (Promega) was determined according to standard procedures using a luminescent signal readout on a Victor V plate reader (PerkinElmer). Each experiment/condition was performed in triplicate.
# Caspase activity was analyzed as percentage effect normalized to the cisplatin alone (100%) and vehicle treated cells as 0% of caspase activity. Data were analyzed by GraphPad Software. One-way analysis of variance (Dunnett's Multiple Comparison test) was used for statistical analyses.
smiles,measurement,setting,value
N#Cc1c(-c2ccccc2)nc(SCc2cccc(C(=O)O)c2)[nH]c1=O [Compound 1],SOD2 activity,[1],induced in a dose-dependent manner
same,Cytotoxicity Hep-G2,HePG2 cells,Not Toxic
same,FoxO1 phosphorylation at Ser256,[2],decrease
same,SOD2 activity,[3],induced in a dose-dependent manner
same,Sod2 mRNA levels,Hepa-1.6 cells,increased in a dose-dependent manner
same,Cytotoxicity AML-12,AML-12 cells [4],Not Toxic
same,ACMSD-1 activity in over-expression cell-based assay,ACMSD-1,"inhibited ACMSD-1 activity, in a dose dependent manner"
same,Sod2 mRNA levels,AML-12 cells [5],increased in a dose-dependent manner
N#Cc1c(-c2cccs2)nc(SCc2cccc(C(=O)O)c2)[nH]c1=O [Compound 4],"concentration at which ACMSD-1 enzyme is inhibited (NAD+ content, FIG. 1)",[6],≤ 0.5 µM
same,Cytotoxicity Hep-G2,HePG2 cells,Not Toxic
same,Cytotoxicity AML-12,AML-12 cells [4],Not Toxic
N#Cc1c(-c2nccs2)nc(SCc2cccc(C(=O)O)c2)[nH]c1=O [Compound 5],Cytotoxicity Hep-G2,HePG2 cells,Not Toxic
same,Cytotoxicity AML-12,AML-12 cells [4],Not Toxic
N#Cc1c(-c2ccc(Cl)cc2)nc(SCc2ccc(C(=O)O)cc2)[nH]c1=O [Compound 8],Cytotoxicity Hep-G2,HePG2 cells,Not Toxic
same,Cytotoxicity AML-12,AML-12 cells [4],Not Toxic
O=C(O)c1cccc(CSc2nc(-c3ccccc3)c(Br)c(=O)[nH]2)c1 [Compound 11],Cytotoxicity Hep-G2,HePG2 cells,Not Toxic
same,Cytotoxicity AML-12,AML-12 cells [4],Not Toxic
N#Cc1c(-c2cccs2)nc(SCc2cccc(-c3nn[nH]n3)c2)[nH]c1=O [Compound 17],intra-cellular NAD+ levels,[7],significant and dose-dependent increase; also recorded: increase in NAD^+ levels
same,dose at which effect on SOD2 activity reached a maximum,[1]; primary hepatocytes,about 50 nM
same,SOD2 activity,[1],induced in a dose-dependent manner
same,Cytotoxicity Hep-G2,HePG2 cells,Not Toxic
same,Pgc1a mRNA expression level,[8],dose-dependent increase
same,Sod2 (MnSOD) mRNA expression level,[8],dose-dependent increase
same,FoxO1 phosphorylation at Ser256,[2],decrease
same,SOD2 activity,[3],induced in a dose-dependent manner
same,Cytotoxicity AML-12,AML-12 cells [4],Not Toxic
N#Cc1c(-c2cccs2)nc(SCc2cccc(CC(=O)O)c2)[nH]c1=O [Compound 18],EC50,"MDCK cells; 1 h, added one hour prior to cisplatin, 1 μM to 125 μM",30 µM
same,EC50,"MDCK cells; added in combination with cisplatin, 0.01 μM to 100 μM",70 µM
same,activity of caspase 3/7 induced by cisplatin,"MDCK cells; MDCK cells, cisplatin 50 μM for 16 hrs","decreases, in significant manner"
N#Cc1c(-c2cccs2)nc(SCc2cccc(-c3noc(=O)[nH]3)c2)[nH]c1=O [Compound 19],Cytotoxicity Hep-G2,HePG2 cells,Not Toxic
same,Cytotoxicity AML-12,AML-12 cells [4],Not Toxic
